What all share (assay type): cell-based
In one test the test system is human cancer cell line. The test can be described thus: Human cancer cell line activity compared with Dolastatin 10. The settings on record: R-dolaphenine (Doe) substitution. An excerpt: A series of Dolastatin 10 chiral isomers has been documented (See: Pettit et al., J. Med. Chem., 1990, 33, 3132). More recently these experiments were extended to synthesis of R-Doe-isodolastatin 10. […] The amide molecular length was then examined, starting with benzylamine, phenethylamine and 3-phenyl-1-propylamine. Also studied was a systematic series of modifications at the dolaphenine position introducing a substituted nitrogen instead of a phenyl ring.

The next test relates to SK-MEL-3. As to the kind of experiment: NCI human tumor cell line screen, melanoma SK-MEL-3. As to conditions: for GI-50 / TGI: Human cancer cell; for LC-50: Human cancer cells. An excerpt:
(§1) Current research in the control of cancer in the United States is coordinated by the National Cancer Institute (NCI). To determine whether a substance has anti-cancer properties, the NCI has established a systematic protocol. This protocol, which involves the testing of a substance against a standard cell line panel containing 60 human tumor cell lines, has been verified and has been accepted in scientific circles. The protocol, and the established statistical means for analyzing the results obtained by the standardized testing are fully described in the literature. See: Body, Dr. Michael R., Principles & Practice of Oncology, PPO Updates, Volume 3, Number 10, October 1989, for an in depth description of the testing protocol; and Paull, K. D., "Display and Analysis of Patterns of Differential Activity of Drugs Against Human Tumor Cell Lines; Development of Mean Graph and COMPARE Algorithm", Journal of the National Cancer Institute Reports, Vol. 81, No. 14, Page 1088, Jul. 14, 1989 for a description of the methods of statistical analysis. Both of these references are incorporated herein by this reference thereto.
(§2) The extraordinary inhibition of cell growth shown by the tetrapeptide 6a-k against six major types of human cancer and against the murine P388 lymphocytic leukemia cell line has been presented in Table 1-2, below.

The next test relates to P-388. As to the kind of experiment: Murine P388 lymphocytic leukemia cell growth inhibition. The settings on record: Mouse leukemia cell P-388.
Text: as §2

The subject of the next test is OVCAR-3. The test can be described thus: NCI human tumor cell line screen, ovarian OVCAR-3. As to conditions: for GI-50 / TGI: Human cancer cell; for LC-50: Human cancer cells.
Text: as §1, with “This protocol, which involves the testing of a substance against a standard cell line panel containing 60 human tumor cell lines, has been verified and has been accepted in scientific circles.” left out

A further test relates to SF-295. As to the kind of experiment: NCI human tumor cell line screen, CNS SF-295. As to conditions: for GI-50 / TGI: Human cancer cell; for LC-50: Human cancer cells.
Text: as §1, §2

The next test concerns NCI-460. The test can be described thus: NCI human tumor cell line screen, Lung-NSC NCI-460. The settings on record: for GI-50 / TGI: Human cancer cell; for LC-50: Human cancer cells.
Text: as §1, with “This protocol, which involves the testing of a substance against a standard cell line panel containing 60 human tumor cell lines, has been verified and has been accepted in scientific circles.” left out

Another test deals with A498. As to the kind of experiment: NCI human tumor cell line screen, renal A498. The settings on record: for GI-50 / TGI: Human cancer cell; for LC-50: Human cancer cells.
Text: as §1, with “This protocol, which involves the testing of a substance against a standard cell line panel containing 60 human tumor cell lines, has been verified and has been accepted in scientific circles.” left out

The test system of the next test is KM20L2. As to the kind of experiment: NCI human tumor cell line screen, colon KM20L2. As to conditions: for GI-50 / TGI: Human cancer cell; for LC-50: Human cancer cells.
Text: as §1, with “This protocol, which involves the testing of a substance against a standard cell line panel containing 60 human tumor cell lines, has been verified and has been accepted in scientific circles.” left out

Take R-Doe-isodolastatin 10: the “human cancer cell line activity when compared with Dolastatin 10” value in the test with human cancer cell line is reported as “does not result in any significant difference”.

Take “[2S-[1[1R*(R*),2S*],2R*[1S*,2S*]]]-N,N-dimethyl-L-valyl-N-[2-methoxy-4-[2-[1-methoxy-2-methyl-3-oxo-3-[[2-(2-chlor-phenyl)-ethyl]amino]propyl]-1-pyrrolidinyl-1-(methylpropyl)-4-oxo butyl]-N-methyl-L-valineamide [Peptide 6g]”: the GI-50 with SK-MEL-3, in the test with OVCAR-3, in the test with SF-295, in the test with NCI-460, in the test with A498 and in the test with KM20L2 was below 0.000001 µg/mL in each case. Besides, the TGI (usually the concentration giving total growth inhibition) in the test on SK-MEL-3 is above 10 ng/mL; in the test on OVCAR-3 it was below 0.001 ng/mL; with SF-295 it was above 10 ng/mL; with NCI-460, 0.11 ng/mL; with A498, 2 ng/mL; in the test on KM20L2 it was 0.38 ng/mL. Also, the LC-50 with SK-MEL-3, in the test on OVCAR-3, in the test with SF-295, in the test with NCI-460, in the test on A498 and in the test with KM20L2 was above 0.01 µg/mL each time. In the test with P-388, this substance came in with an ED-50 of 0.000289 µg/mL.

With “[2S-[1[1R*(R*),2S*],2R*[1S*,2S*]]]-N,N-dimethyl-L-valyl-N-[2-methoxy-4-[2-[1-methoxy-2-methyl-3-oxo-3-[[2-(4-chlor-phenyl)-ethyl]amino]propyl]-1-pyrrolidinyl-1-(methylpropyl)-4-oxo butyl]-N-methyl-L-valineamide [Peptide 6c]”, the GI-50 with SK-MEL-3 is below 0.000001 µg/mL; in the test on OVCAR-3, below 0.000001 µg/mL; in the test with SF-295 it was 0.000010 µg/mL; in the test on NCI-460, below 0.000001 µg/mL; with A498 it was 0.00062 µg/mL; with KM20L2, below 0.000001 µg/mL. For the same substance, the TGI is above 10 ng/mL with SK-MEL-3; below 0.001 ng/mL in the test on OVCAR-3; 1.9 ng/mL in the test with SF-295; 1.1 ng/mL in the test on NCI-460; above 10 ng/mL in the test on A498; 1.1 ng/mL in the test with KM20L2. Besides, the LC-50 in the test with SK-MEL-3, with OVCAR-3, in the test with SF-295, in the test on NCI-460, in the test on A498 and in the test on KM20L2 was above 0.01 µg/mL in each case. In the test on P-388, the ED-50 is 0.00553 µg/mL.

As to “[2S-[1[1R*(R*),2S*],2R*[1S*,2S*]]]-N,N-dimethyl-L-valyl-N-[2-methoxy-4-[2-[1-methoxy-2-methyl-3-oxo-3-[[2-(4-nitro-phenyl)-ethyl]amino]propyl]-1-pyrrolidinyl-1-(methylpropyl)-4-oxo butyl]-N-methyl-L-valineamide [Peptide 6b]”, the GI-50 in the test on SK-MEL-3 amounted to 0.00012 µg/mL; in the test with OVCAR-3 it was 0.00024 µg/mL; in the test with SF-295, 0.00035 µg/mL; with NCI-460, 0.00028 µg/mL; in the test with A498, 0.00064 µg/mL; in the test on KM20L2, 0.0003 µg/mL. For the same substance, the TGI with SK-MEL-3 was 1.3 ng/mL; in the test on OVCAR-3, 0.65 ng/mL; in the test on SF-295 it was above 10 ng/mL; with NCI-460 it was 1.2 ng/mL; in the test with A498 it was above 10 ng/mL; in the test with KM20L2, 1.3 ng/mL. Also, the LC-50 with SK-MEL-3, in the test with OVCAR-3, with SF-295, in the test with NCI-460, in the test with A498 and in the test with KM20L2 was above 0.01 µg/mL in each case. The ED-50 in the test with P-388 was 0.0459 µg/mL.

With “[2S-[1[1R*(R*),2S],2R*[1S*,2S*]]]-N,N-dimethyl-L-valyl-N-[2-methoxy-4-[2-[1-methoxy-2-methyl-3-oxo-3-[[2-(3,4-dimethoxy-phenyl)-ethyl]amino]propyl]-1- pyrrolidinyl-1-(methylpropyl)-4-oxobutyl]-N-methyl-L-valineamide [Peptide 6a]”, the GI-50 in the test with SK-MEL-3 worked out at 0.000018 µg/mL; in the test on OVCAR-3 it was 0.000007 µg/mL; in the test with SF-295 it was 0.000029 µg/mL; in the test with NCI-460, 0.000031 µg/mL; with A498, 0.000016 µg/mL; in the test on KM20L2, 0.000025 µg/mL. Moreover, the TGI in the test with SK-MEL-3 was 0.058 ng/mL; in the test with OVCAR-3, 0.061 ng/mL; with SF-295, 0.083 ng/mL; in the test on NCI-460, 0.094 ng/mL; with A498, above 0.1 ng/mL; with KM20L2, 0.061 ng/mL. In addition, the LC-50 with SK-MEL-3, with OVCAR-3, with SF-295, with NCI-460, in the test with A498 and in the test on KM20L2 was above 0.0001 µg/mL each time. The same substance returned an ED-50 in the test on P-388 of 0.0035 µg/mL.

(Values after US5635483A, “Tumor inhibiting tetrapeptide bearing modified phenethyl amides” (priority 1992, dated 1997).)
